Measurements taken from patent US20250230193A1, “CYCLIC COMPOUND HAVING SELECTIVE KRAS INHIBITORY EFFECT ON HRAS AND NRAS” (CHUGAI SEIYAKU KABUSHIKI KAISHA, priority 2022, published 2025).
Where a SMILES comes first, the peptide text is derived from it. Bridges are numbered along the chain shown (N, C = ends). [ ]: non-standard residue; d: D form. The star is where a group is joined. hPhe(3-Cl-4-CF3) = N[C@@H](CCc1ccc(C(F)(F)F)c(Cl)c1)C(=O)O; NPrPhe(4-CF3) = CCCN[C@@H](Cc1ccc(C(F)(F)F)cc1)C(=O)O; NMeGly(cPent) = CN[C@H](C(=O)O)C1CCCC1; Gly(cBu) = N[C@H](C(=O)O)C1CCC1; NMeD = CN[C@@H](CC(=O)O)C(=O)O; NMeL = CN[C@@H](CC(C)C)C(=O)O; Morpholide = C1CN(*)CCO1; Ac5c = NC1(C(=O)O)CCCC1; Sar = CNCC(=O)O

How the values were obtained:
[1] = biological target: GDP-bound NRAS wild-type protein (Homo sapiens, UniProt P01111); test: Binding to NRAS by surface plasmon resonance (SPR), Single Cycle Kinetics; details: for NRAS/KRAS (ratio of KD value with respect to NRAS to KD value with respect to KRAS): GDP-bound NRAS wild-type vs GDP-bound KRAS wild-type
[2] = biological target: GDP-bound HRAS wild-type protein (Homo sapiens, UniProt P01112); test: Binding to HRAS by surface plasmon resonance (SPR), Single Cycle Kinetics; details: for HRAS/KRAS (ratio of KD value with respect to HRAS to KD value with respect to KRAS): GDP-bound HRAS wild-type vs GDP-bound KRAS wild-type
Sequence of GDP-bound HRAS wild-type protein (P01112 whole entry): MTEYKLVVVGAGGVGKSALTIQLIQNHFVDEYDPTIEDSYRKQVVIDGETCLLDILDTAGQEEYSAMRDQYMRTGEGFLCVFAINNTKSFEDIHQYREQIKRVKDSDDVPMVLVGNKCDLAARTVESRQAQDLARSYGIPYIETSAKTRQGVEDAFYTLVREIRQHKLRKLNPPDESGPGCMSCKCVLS

Sequence of GDP-bound NRAS wild-type protein (P01111 whole entry): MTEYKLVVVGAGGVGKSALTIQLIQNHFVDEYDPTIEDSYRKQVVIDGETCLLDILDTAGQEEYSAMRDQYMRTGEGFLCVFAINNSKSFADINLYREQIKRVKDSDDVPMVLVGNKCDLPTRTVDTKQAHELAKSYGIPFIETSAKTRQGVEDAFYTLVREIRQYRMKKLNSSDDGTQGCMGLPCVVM

CCCO[C@@H]1C[C@H]2C(=O)NC3(CC(C)(C)C3)C(=O)N(C)[C@@H](C3CCCC3)C(=O)N(C)[C@H](C(=O)N3CCCCC3)CC(=O)N(C)[C@H]3CCCc4ccc(cc4)C[C@@H](C(=O)N(C)CC(=O)N[C@@H](CCc4ccc(C(F)(F)F)c(OC)c4)C(=O)N2C1)N1CC/C=C\C[C@@H](C1=O)N(C)C(=O)CN(C)C(=O)[C@H]([C@@H](C)CC)NC3=O [PP3064]
NRAS/KRAS (ratio of KD value with respect to GDP-bound NRAS wild-type protein to KD value with respect to KRAS) ([1]; KD ratio NRAS/KRAS, SPR, GDP-bound wild-type proteins): B (a compound having 3 or more and less than 10 is denoted as B) | HRAS/KRAS (ratio of KD value with respect to GDP-bound HRAS wild-type protein to KD value with respect to KRAS) ([2]; KD ratio HRAS/KRAS, SPR, GDP-bound wild-type proteins): B (a compound having 3 or more and less than 10 is denoted as B)

CCCO[C@H](C)[C@@H]1NC(=O)[C@H](CC(C)C)N(C)C(=O)C[C@@H](C(=O)N(C)C)N(C)C(=O)[C@H](C2CCCC2)N(C)C(=O)C2(CC(C)(C)C2)NC(=O)[C@@H]2C[C@H](C)CN2C(=O)[C@H](CCc2ccc(C(F)(F)F)c(OC)c2)NC(=O)CN(C)C(=O)[C@H](Cc2ccc(C)cc2)N2CC/C=C\C[C@@H](C2=O)N(C)C(=O)CN(C)C1=O [PP2415]
NRAS/KRAS (ratio of KD value with respect to NRAS to KD value with respect to KRAS) ([1]; SPR): AA (a compound having 20 or more is denoted as AA) | HRAS/KRAS (ratio of KD value with respect to HRAS to KD value with respect to KRAS) ([2]; SPR): A (a compound having 10 or more and less than 20 is denoted as A)

CCO[C@@H]1C[C@H]2C(=O)NC3(CCC3)C(=O)N(C)[C@@H](C3CCCC3)C(=O)N(C)[C@H](C(=O)N3CCOCC3)CC(=O)N(C)[C@@H](CC3CC3)C(=O)N[C@@H]([C@@H](C)CC)C(=O)N(C)CC(=O)N(C)[C@H]3CCCCCN(C3=O)[C@@H](Cc3ccc(F)cc3)C(=O)N(C)CC(=O)N[C@@H](CCc3cc(F)c(C(F)(F)F)c(F)c3)C(=O)N2C1 [PP1178]
NRAS/KRAS (ratio of KD value with respect to NRAS to KD value with respect to KRAS) ([1]; KD ratio, SPR): B (a compound having 3 or more and less than 10 is denoted as B) | HRAS/KRAS (ratio of KD value with respect to HRAS to KD value with respect to KRAS) ([2]; KD ratio, SPR): B (a compound having 3 or more and less than 10 is denoted as B)

CCO[C@@H]1C[C@H]2C(=O)NC3(CCC3)C(=O)N(C)[C@@H](C3CCCC3)C(=O)N(C)[C@H](C(=O)N(C)CCOC)CC(=O)N(C)[C@@H](CC3CC3)C(=O)N[C@@H]([C@@H](C)CC)C(=O)N(C)CC(=O)N(C)[C@H]3C/C=C\CCN(C3=O)[C@@H](Cc3ccc(C(F)(F)F)cc3)C(=O)N(C)CC(=O)N[C@@H](CCc3cc(F)c(C(F)(F)F)c(F)c3)C(=O)N2C1 [PP1318]
NRAS/KRAS (ratio of KD value for GDP-bound NRAS wild-type protein to KD value for KRAS) ([1]; SPR, KD ratio class): A (a compound having 10 or more and less than 20 is denoted as A) | HRAS/KRAS (ratio of KD value for GDP-bound HRAS wild-type protein to KD value for KRAS) ([2]; SPR, KD ratio class): A (a compound having 10 or more and less than 20 is denoted as A)

CCC[C@H]1C(=O)N[C@@H]([C@@H](C)CC)C(=O)N(C)CC(=O)N(C)[C@H]2C/C=C\CCN(C2=O)[C@@H](Cc2ccc(C)cc2)C(=O)N(C)CC(=O)N[C@@H](CCc2ccc(Cl)c(C(F)(F)F)c2)C(=O)N2C[C@H](OCC)C[C@H]2C(=O)NC2(CC(C)(C)C2)C(=O)N(C)[C@@H](C2CCCC2)C(=O)N(C)[C@H](C(=O)N(C)C)CC(=O)N1C [PP2786]
NRAS/KRAS (ratio of KD value with respect to GDP-bound NRAS wild-type protein to KD value with respect to KRAS) ([1]; KD ratio NRAS/KRAS, class symbols): A (a compound having 10 or more and less than 20 is denoted as A) | HRAS/KRAS (ratio of KD value with respect to GDP-bound HRAS wild-type protein to KD value with respect to KRAS) ([2]; KD ratio HRAS/KRAS, class symbols): A (a compound having 10 or more and less than 20 is denoted as A)

CC[C@H](C)[C@@H]1NC(=O)[C@H](CC(C)C)N(C)C(=O)C[C@@H](C(=O)N2CCOCC2)N(C)C(=O)[C@H](C2CCCC2)N(C)C(=O)[C@](C)(CC)NC(=O)[C@@H]2CCCN2C(=O)[C@H](CCc2cc(F)c(C(F)(F)F)c(F)c2)NC(=O)CN(C)C(=O)[C@H](Cc2ccc(C(F)(F)F)cc2)N2CCCCC[C@@H](C2=O)N(C)C(=O)CN(C)C1=O [PP0500]
NRAS/KRAS (ratio of KD value with respect to GDP-bound NRAS wild-type protein to KD value with respect to KRAS) ([1]; KD ratio NRAS/KRAS, SPR): B (a compound having 3 or more and less than 10 is denoted as B) | HRAS/KRAS (ratio of KD value with respect to GDP-bound HRAS wild-type protein to KD value with respect to KRAS) ([2]; KD ratio HRAS/KRAS, SPR): B (a compound having 3 or more and less than 10 is denoted as B)

CC[C@H](C)[C@@H]1NC(=O)[C@H](CC)N(C)C(=O)C[C@@H](C(=O)N(C)C)N(C)C(=O)[C@H](C2CCCC2)N(C)C(=O)C2(CCC2)NC(=O)[C@@H]2C[C@H](OC)CN2C(=O)[C@H](CCc2cc(F)c(C(F)(F)F)c(F)c2)NC(=O)CN(C)C(=O)[C@H](Cc2ccc(C(F)(F)F)cc2)N2CC/C=C\C[C@@H](C2=O)N(C)C(=O)CN(C)C1=O [PP1128]
NRAS/KRAS (ratio of KD value with respect to NRAS to KD value with respect to KRAS) ([1]; KD ratio, SPR): AA (a compound having 20 or more is denoted as AA) | HRAS/KRAS (ratio of KD value with respect to HRAS to KD value with respect to KRAS) ([2]; KD ratio, SPR): A (a compound having 10 or more and less than 20 is denoted as A)

CCCN1C(=O)CN(C)C(=O)CN(C)C(=O)[C@H](C2CCC2)NC(=O)[C@H](CC(C)C)N(C)C(=O)C[C@@H](C(=O)N2CCOCC2)N(C)C(=O)[C@H](C2CCCC2)N(C)C(=O)C2(CCCC2)NC(=O)[C@@H]2CCCN2C(=O)[C@H](CCc2ccc(C(F)(F)F)c(Cl)c2)NC(=O)CN(C)C(=O)[C@@H]1Cc1ccc(C(F)(F)F)cc1 [PP0250] ([NMeL][Gly(cBu)][Sar][Sar][NPrPhe(4-CF3)][Sar][hPhe(3-Cl-4-CF3)]P[Ac5c][NMeGly(cPent)][NMeD]-Morpholide; lactam N-11)
NRAS/KRAS (ratio of KD for GDP-bound NRAS wild-type to KD for KRAS) ([1]; KD ratio NRAS/KRAS, SPR): B (a compound having 3 or more and less than 10 is denoted as B) | HRAS/KRAS (ratio of KD for GDP-bound HRAS wild-type to KD for KRAS) ([2]; KD ratio HRAS/KRAS, SPR): C (A compound having a KD ratio of 0.1 or more and less than 3 is denoted as C)
